Measurements from patent US20140161722A1, “USE OF PYRIMIDINE DERIVATIVES FOR THE TREATMENT OF EGFR DEPENDENT DISEASES OR DISEASES THAT HAVE ACQUIRED RESISTANCE TO AGENTS THAT TARGET EGFR FAMILY MEMBERS” (priority 2008, published 2014).

Test system: EGFR inhibitor resistant NSCLC cell line NCI-H1975
Assay: in vivo antitumor activity against s.c. NCI-H1975 tumors in athymic mice
Procedure: Female Harlan athymic mice (n=6), bearing s.c NCI-H1975 tumors are treated p.o. with the PI3K inhibitor Compound A at 50 mg/kg every day for the duration of the treatment. * p<0.05 (Dunnet's vs controls).
Non small cell lung carcinoma cell lines with EGFR mutant forms, but refractory to EGFR inhibition therapy, are valuable models to test the sensitivity of PI3K inhibitors like the compounds of formula I in such genetic background. The NCI-H1975 cell line is such a model as is highly tumorigenic in vivo. Moreover, it contains HER1 bearing the T790M gatekeeper mutation that renders the kinase resistant to catalytic inhibition by compounds such as gefitinib. The in vivo antitumor activity of PI3K inhibitors like the compounds of formula I is tested against this EGFR driven and EGFR tyrosine kinase inhibitor resistant tumor model (FIG. 1).

In the case of Nc1cc(C(F)(F)F)c(-c2cc(N3CCOCC3)nc(N3CCOCC3)n2)cn1 [Compound A, 5-(2,6-di-morpholin-4-yl-pyrimidin-4-yl)-4-trifluoromethyl-pyridin-2-ylamine], the “antitumor activity (tumor growth)” value (female Harlan athymic mice, s.c. NCI-H1975 tumors (HER1 T790M), 50 mg/kg p.o. every day, p<0.05 Dunnet's vs controls (FIG. 1)) was “in vivo tumor growth inhibition”, the “mean body weight, control vs treatment group” value (mice bearing s.c. NCI-H1975 tumors, 50 mg/kg p.o. every day (FIG. 2)) was “no statistically significant difference in body weight” and the tolerability (mouse, in vivo, 50 mg/kg) was “well tolerated”.
